In PMC10375476, “Feedback Inhibition of Bacterial Nucleotidyltransferases by Rare Nucleotide L-Sugars Restricts Substrate Promiscuity” (Journal of the American Chemical Society, 2023):

Legend:
[1] = target: SALTY RmlA (Salmonella enterica, UniProt P26393); experiment: inhibition of reconstituted RmlA activity; assay type: biochemical
[2] = target: Pa RmlA (Pseudomonas aeruginosa, UniProt Q9HU22); experiment: inhibition of reconstituted RmlA activity; assay type: biochemical
[3] = target: Mtb RmlA (Mycobacterium tuberculosis, UniProt P9WH13); experiment: biochemical
[4] = target: E. coli RmlA (Escherichia coli, UniProt P37744); experiment: inhibition of reconstituted RmlA activity; assay type: biochemical
Sequence of E. coli RmlA (P37744 whole entry): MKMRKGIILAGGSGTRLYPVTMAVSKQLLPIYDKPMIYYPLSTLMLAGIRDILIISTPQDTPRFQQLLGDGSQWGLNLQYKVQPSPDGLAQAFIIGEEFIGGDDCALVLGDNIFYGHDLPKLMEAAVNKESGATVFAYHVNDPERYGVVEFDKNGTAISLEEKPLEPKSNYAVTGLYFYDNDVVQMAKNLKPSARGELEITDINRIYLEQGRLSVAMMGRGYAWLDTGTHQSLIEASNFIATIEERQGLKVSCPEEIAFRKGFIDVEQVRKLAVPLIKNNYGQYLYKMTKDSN

Sequence of SALTY RmlA (P26393 whole entry): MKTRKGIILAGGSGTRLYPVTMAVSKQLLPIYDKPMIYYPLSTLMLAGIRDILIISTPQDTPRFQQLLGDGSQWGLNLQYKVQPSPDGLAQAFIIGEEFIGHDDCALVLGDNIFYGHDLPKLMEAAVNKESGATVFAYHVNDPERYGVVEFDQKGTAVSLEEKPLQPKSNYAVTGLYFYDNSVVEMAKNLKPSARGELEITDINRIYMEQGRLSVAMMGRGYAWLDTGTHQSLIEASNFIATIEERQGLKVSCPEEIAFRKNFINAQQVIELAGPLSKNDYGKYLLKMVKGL
Sequence of Mtb RmlA (P9WH13 whole entry): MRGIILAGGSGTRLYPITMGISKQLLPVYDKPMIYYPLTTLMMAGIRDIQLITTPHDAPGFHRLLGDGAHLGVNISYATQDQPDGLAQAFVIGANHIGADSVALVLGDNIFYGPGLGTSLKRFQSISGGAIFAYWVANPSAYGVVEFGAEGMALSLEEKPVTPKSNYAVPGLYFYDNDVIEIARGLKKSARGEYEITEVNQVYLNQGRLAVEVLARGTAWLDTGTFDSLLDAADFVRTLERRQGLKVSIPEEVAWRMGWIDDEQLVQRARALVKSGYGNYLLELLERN
Sequence of Pa RmlA (Q9HU22 1-293): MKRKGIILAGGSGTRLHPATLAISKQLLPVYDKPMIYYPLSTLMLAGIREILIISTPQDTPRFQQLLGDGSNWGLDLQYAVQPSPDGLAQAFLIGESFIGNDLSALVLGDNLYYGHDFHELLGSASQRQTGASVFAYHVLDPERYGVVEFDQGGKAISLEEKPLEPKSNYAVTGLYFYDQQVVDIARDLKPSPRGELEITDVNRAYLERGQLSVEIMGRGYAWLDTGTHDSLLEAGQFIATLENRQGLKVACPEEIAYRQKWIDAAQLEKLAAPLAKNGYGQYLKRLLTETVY

Cc1cn([C@H]2C[C@H](O)[C@@H](COP(=O)(O)OP(=O)(O)O[C@H]3O[C@@H](C)[C@H](O)[C@@H](O)[C@H]3O)O2)c(=O)[nH]c1=O [compound 1, dTDP-β-L-Rha]
IC50 [1]: 109 µM | IC50 [2]: 25.1 µM | IC50 [3]: 65.7 µM | IC50 [4]: 137 µM

Cc1cn([C@H]2C[C@H](O)[C@@H](COP(=O)(O)OP(=O)(O)O[C@H]3O[C@@H](C)[C@@H](O)[C@@H](O)[C@H]3O)O2)c(=O)[nH]c1=O [compound 2, dTDP-β-L-6dTal]
IC50 [2]: 312 µM

Cc1cn([C@H]2C[C@H](O)[C@@H](COP(=O)(O)OP(=O)(O)O[C@@H]3O[C@@H](C)[C@H](O)[C@@H](O)[C@H]3O)O2)c(=O)[nH]c1=O [compound 10, dTDP-α-L-Rha (α-anomer 10)]
IC50 [1]: > 500 µM | IC50 [2]: 250 µM | IC50 [3]: 500 µM | IC50 [4]: > 500 µM

Cc1cn([C@H]2C[C@H](O)[C@@H](COP(=O)(O)OP(=O)(O)O[C@H]3O[C@@H](CO)[C@H](O)[C@@H](O)[C@H]3O)O2)c(=O)[nH]c1=O [compound 11, dTDP-β-L-Man]
IC50 [1]: > 500 µM | IC50 [2]: 376 µM | IC50 [3]: 458 µM | IC50 [4]: > 500 µM

C[C@@H]1O[C@H](OP(=O)(O)OP(=O)(O)OC[C@H]2O[C@@H](n3ccc(=O)[nH]c3=O)[C@H](O)[C@@H]2O)[C@H](O)[C@H](O)[C@H]1O [compound 12, UDP-β-L-Rha]
IC50 [2]: 362 µM
